Test results: patent publication US10851098B2, “Azole amides and amines as alpha v integrin inhibitors” (BRISTOL-MYERS SQUIBB COMPANY, priority 2016, dated 2020)

Target: T1, human αVβ6 (Homo sapiens, UniProt P06756+P18564)
T1 construct: purchased R & D systems 3817-AV
Assay: human αVβ6 HTRF binding assay
Procedure: All binding assays used the HTRF (homogeneous time resolved fluorescence) technology from Cisbio International, therefore all assays are described as HTRF binding assays. The assay results for the Examples are listed above together with the characterization data. The HTRF binding assays are established for the following integrins: human αVβ6, human αVβ1, human αVβ3, human αVβ5, and human αVβ8. All assays used the following assay buffer: 20 mM Tris, pH 7.4, 1 mM MgCl2, 1 mM MnCl2, 0.01% Tween 20, and 0.01% BSA. Alternatively, a SPA-based assay was used for evaluation of receptor binding.
[…]

T1 sequence (P06756 31-992 limits assumed): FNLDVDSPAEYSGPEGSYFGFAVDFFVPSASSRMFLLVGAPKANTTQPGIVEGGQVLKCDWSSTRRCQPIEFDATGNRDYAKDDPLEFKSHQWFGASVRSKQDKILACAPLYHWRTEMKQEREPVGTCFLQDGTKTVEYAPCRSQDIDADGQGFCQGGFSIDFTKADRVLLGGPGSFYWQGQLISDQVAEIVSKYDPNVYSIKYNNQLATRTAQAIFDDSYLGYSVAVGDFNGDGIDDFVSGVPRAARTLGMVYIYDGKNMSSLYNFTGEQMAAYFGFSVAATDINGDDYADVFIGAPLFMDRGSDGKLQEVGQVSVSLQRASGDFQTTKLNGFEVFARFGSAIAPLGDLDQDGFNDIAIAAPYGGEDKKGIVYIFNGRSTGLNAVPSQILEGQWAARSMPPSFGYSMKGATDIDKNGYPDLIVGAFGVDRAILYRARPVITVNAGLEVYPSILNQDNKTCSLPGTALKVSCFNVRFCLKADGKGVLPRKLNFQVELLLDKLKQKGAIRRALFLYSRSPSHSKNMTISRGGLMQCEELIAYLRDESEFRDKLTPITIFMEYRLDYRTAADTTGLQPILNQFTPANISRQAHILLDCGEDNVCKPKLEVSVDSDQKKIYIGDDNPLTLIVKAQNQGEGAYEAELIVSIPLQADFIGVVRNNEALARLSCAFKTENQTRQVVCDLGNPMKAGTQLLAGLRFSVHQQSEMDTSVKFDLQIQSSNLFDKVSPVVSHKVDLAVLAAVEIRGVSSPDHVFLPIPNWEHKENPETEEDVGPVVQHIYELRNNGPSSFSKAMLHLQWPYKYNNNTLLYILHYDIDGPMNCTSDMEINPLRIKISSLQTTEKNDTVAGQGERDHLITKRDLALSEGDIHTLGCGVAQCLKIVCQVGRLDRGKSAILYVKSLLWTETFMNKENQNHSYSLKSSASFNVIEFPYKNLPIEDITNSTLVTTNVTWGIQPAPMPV
T1 sequence (P18564 22-707 limits assumed): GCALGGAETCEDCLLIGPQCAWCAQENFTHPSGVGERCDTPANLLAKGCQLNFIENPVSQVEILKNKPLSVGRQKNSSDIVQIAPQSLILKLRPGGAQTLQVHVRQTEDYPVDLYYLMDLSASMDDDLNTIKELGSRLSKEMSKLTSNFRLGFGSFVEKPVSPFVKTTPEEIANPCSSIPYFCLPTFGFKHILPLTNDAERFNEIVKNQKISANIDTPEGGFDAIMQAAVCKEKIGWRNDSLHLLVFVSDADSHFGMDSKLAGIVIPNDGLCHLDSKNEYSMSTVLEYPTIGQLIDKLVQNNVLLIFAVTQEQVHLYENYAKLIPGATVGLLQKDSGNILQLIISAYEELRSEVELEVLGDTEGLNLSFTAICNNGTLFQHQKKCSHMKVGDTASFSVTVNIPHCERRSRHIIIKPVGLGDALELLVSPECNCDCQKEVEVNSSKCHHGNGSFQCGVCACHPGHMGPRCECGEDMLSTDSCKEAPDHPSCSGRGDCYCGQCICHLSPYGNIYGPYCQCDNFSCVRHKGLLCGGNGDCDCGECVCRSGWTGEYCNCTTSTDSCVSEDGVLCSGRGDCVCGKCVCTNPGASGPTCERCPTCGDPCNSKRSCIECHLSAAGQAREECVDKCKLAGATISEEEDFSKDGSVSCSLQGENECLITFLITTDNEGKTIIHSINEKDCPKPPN

Compound	IC50
Cc1cc(C)c(S(=O)(=O)N[C@@H](CNC(=O)c2cnn(CCCNC3=NCCN3)c2)C(=O)O)c(C)c1 [Example 171]	14 nM
O=C(O)CC(NC(=O)c1cnn(CCc2ccc3c(n2)NCCC3)c1CO)c1cccc(OC(F)(F)F)c1 (stereo not shown) [Example 36]	11 nM
C=CCCOC(=O)N[C@@H](CNC(=O)c1cnn(CCc2ccc3c(n2)NCCC3)c1)C(=O)O [Example 135]	1.4 nM
Cc1cc(C)c(S(=O)(=O)N[C@@H](CNC(=O)c2cnn(CCCNC3=NCC(O)CN3)c2)C(=O)O)c(C)c1 (stereo partly shown) [Example 172]	4.5 nM
CC(C)(C)c1cc(Br)cc([C@H](CC(=O)O)NC(=O)c2cnn(Cc3ccc4c(n3)NCCC4)c2)c1 [Example 98]	1410 nM
O=C(NC[C@H](NS(=O)(=O)Cc1ccccc1F)C(=O)O)c1cnn(CCc2ccc3c(n2)NCCC3)c1 [Example 166]	10 nM
CCOCCS(=O)(=O)N[C@@H](CNC(=O)c1cnn(CCc2ccc3c(n2)NCCC3)c1)C(=O)O [Example 148]	8.9 nM
O=C(NC[C@H](NS(=O)(=O)Cc1ccccc1Cl)C(=O)O)c1cnn(CCc2ccc3c(n2)NCCC3)c1 [Example 155]	5.5 nM
O=C(O)C[C@H](NC(=O)c1ncn(CCc2ccc3c(n2)NCCC3)n1)c1cc(Cl)cc(Cl)c1 [Example 120]	98 nM
O=C(O)CC(NC(=O)c1cnn(CCc2ccc3c(n2)NCCC3)c1CO)c1ccc(Cl)c(C(F)(F)F)c1 (stereo not shown) [Example 35]	10 nM
O=C(NC[C@H](NS(=O)(=O)CCN1C(=O)c2ccccc2C1=O)C(=O)O)c1cnn(CCc2ccc3c(n2)NCCC3)c1 [Example 151]	1.2 nM
O=C(O)CC(NC(=O)c1cnn(CCc2ccc3c(n2)NCCC3)c1)c1ccc(Cl)c(C(F)(F)F)c1 (stereo not shown) [Example 24]	3.1 nM
O=C(O)CC(NC(=O)c1cnn(CCc2ccc3c(n2)NCCC3)c1CO)c1ccc(F)cc1 (stereo not shown) [Example 71]	120 nM
COc1ccc([C@H](CC(=O)O)NC(=O)c2cnn(CCc3ccc4c(n3)NCCC4)c2-c2ccccc2)cc1F [Example 91]	410 nM
O=C(O)CC(NC(=O)c1cnn(CCc2ccc3c(n2)NCCC3)c1)c1ccc2c(c1)OCO2 (stereo not shown) [Example 56]	37 nM
O=C(O)CC(NC(=O)c1cn(CCc2ccc3c(n2)NCCC3)nc1CO)c1cc(Cl)cc(Cl)c1 (stereo not shown) [Example 4, 3-(3,5-Dichlorophenyl)-3-(3-(hydroxymethyl)-1-(2-(5,6,7,8-tetrahydro-1,8-naphthyridin-2-yl)ethyl)-1H-pyrazole-4-carboxamido)propanoic acid]	141 nM
Cc1ccc(Oc2cccc(C(CC(=O)O)NC(=O)c3cnn(CCc4ccc5c(n4)NCCC5)c3CO)c2)cc1 (stereo not shown) [Example 27]	5.1 nM
CCCCCOC(=O)N[C@@H](CNC(=O)c1cnn(CCc2ccc3c(n2)NCCC3)c1)C(=O)O [Example 134]	0.8 nM
CC(C)(C)OCc1c(C(=O)NC(CC(=O)O)c2cc(Cl)cc(Cl)c2)cnn1CCCc1ccc2c(n1)NCCC2 (stereo not shown) [Example 59]	40 nM
O=C(O)C[C@H](NC(=O)c1cnn(CCc2ccc3c(n2)NCCC3)n1)c1cc(Cl)cc(Cl)c1 [Example 13, (S)-3-(3,5-Dichlorophenyl)-3-(2-(2-(5,6,7,8-tetrahydro-1,8-naphthyridin-2-yl)ethyl)-2H-1,2,3-triazole-4-carboxamido)propanoic acid]	7.1 nM
CN(C(=O)c1cnn(CCCc2ccc3c(n2)NCCC3)c1)[C@@H](CC(=O)O)c1cc(Cl)cc(Cl)c1 [Example 45]	18 nM
O=C(N[C@@H](CNCc1cnn(CCc2ccc3c(n2)NCCC3)c1)C(=O)O)OCc1ccccc1 [Example 174, (S)-2-(((Benzyloxy)carbonyl)amino)-3-(((1-(2-(5,6,7,8-tetrahydro-1,8-naphthyridin-2-yl)ethyl)-1H-pyrazol-4-yl)methyl)amino)propanoic acid]	6.2 nM
O=C(O)CC(NC(=O)c1cn(CCc2ccc3c(n2)NCCC3)nc1-c1ccccc1)c1ccc(Cl)c(Cl)c1 (stereo not shown) [Example 78]	137 nM
Cc1cc(C)n(-c2cccc(C(CC(=O)O)NC(=O)c3cnn(CCc4ccc5c(n4)NCCC5)c3CO)c2)n1 (stereo not shown) [Example 42]	16 nM
CN(C(=O)c1cn(CCc2ccc3c(n2)NCCC3)nc1C(F)(F)F)[C@@H](CC(=O)O)c1cc(Cl)cc(Cl)c1 [Example 48]	22 nM
N#Cc1cccc(CS(=O)(=O)N[C@@H](CNC(=O)c2cnn(CCc3ccc4c(n3)NCCC4)c2)C(=O)O)c1 [Example 169]	13 nM
COc1ccc([C@H](CC(=O)O)NC(=O)c2cnn(CCCc3ccc4c(n3)NCCC4)c2)cn1 [Example 87]	339 nM
O=C(O)C[C@H](NC(=O)c1cnn(CCCNC2=NCCN2)c1)c1cc(Cl)cc(Cl)c1 [Example 8, (S)-3-(3,5-Dichlorophenyl)-3-(1-(3-((4,5-dihydro-1H-imidazol-2-yl)amino)propyl)-1H-pyrazole-4-carboxamido)propanoic acid]	41 nM

Compound	IC50
O=C(O)C[C@H](NC(=O)c1cnn(CCCc2ccc3c(n2)NCCC3)c1)c1cc(Cl)cc(Cl)c1 [Example 60]	46 nM
Cc1cc(CS(=O)(=O)N[C@@H](CNC(=O)c2cnn(CCc3ccc4c(n3)NCCC4)c2)C(=O)O)no1 [Example 158]	29 nM
CC(C)(C)OCc1nn(CCc2ccc3c(n2)NCCC3)cc1C(=O)NC(CC(=O)O)c1cc(Cl)cc(Cl)c1 (stereo not shown) [Example 3]	312 nM
O=C(O)CC(NC(=O)c1cn(CCc2ccc3c(n2)NCCC3)nc1-c1ccccc1)c1cc(Cl)cc(Cl)c1 (stereo not shown) [Example 82]	244 nM
O=C(NC[C@H](NS(=O)(=O)CC1CCCCC1)C(=O)O)c1cnn(CCc2ccc3c(n2)NCCC3)c1 [Example 164]	6.4 nM
O=C(N[C@@H](CNC(=O)c1cnn(CCc2ccc3c(n2)NCCC3)c1)C(=O)O)OCC(F)(F)F [Example 153]	1.6 nM
Cc1cc(C)c(C(=O)N[C@@H](CNC(=O)c2cnn(CCc3ccc4c(n3)NCCC4)c2)C(=O)O)c(C)c1 [Example 15, (S)-3-(1-(2-(5,6,7,8-Tetrahydro-1,8-naphthyridin-2-yl)ethyl)-1H-pyrazole-4-carboxamido)-2-(2,4,6-trimethylbenzamido)propanoic acid]	0.9 nM
O=C(NC[C@H](NS(=O)(=O)Cc1ccc(Cl)cc1Cl)C(=O)O)c1cnn(CCc2ccc3c(n2)NCCC3)c1 [Example 165]	2.9 nM
CCCCCCOC(=O)N[C@@H](CNC(=O)c1cnn(CCc2ccc3c(n2)NCCC3)c1)C(=O)O [Example 160]	0.7 nM
O=C(O)CC(NC(=O)c1cnn(CCc2ccc3c(n2)NCCC3)c1CO)c1cc(F)cc(F)c1 (stereo not shown) [Example 80]	178 nM
O=C(O)C[C@H](NC(=O)c1cn(CCc2ccc3c(n2)NCCC3)cn1)c1cc(Cl)cc(Cl)c1 [Example 116]	102 nM
O=C(O)CC(NC(=O)c1cnn(CCc2ccc3c(n2)NCCC3)c1CO)c1ccc(Cl)c(Cl)c1 (stereo not shown) [Example 58]	40 nM
CC(C)(C)c1cc(Br)cc([C@H](CC(=O)O)NC(=O)c2cnn(CCc3ccc4c(n3)NCCC4)c2)c1 [Example 22]	1.9 nM
O=C(NC[C@H](NS(=O)(=O)Cc1cccc(Cl)c1)C(=O)O)c1cnn(CCc2ccc3c(n2)NCCC3)c1 [Example 163]	6.2 nM
CC(C)(C)c1cc(Br)cc([C@H](CC(=O)O)NC(=O)c2cn(CCc3ccc4c(n3)NCCC4)nc2C(F)(F)F)c1 [Example 63]	56 nM
Cc1cc(C)c(S(=O)(=O)N[C@@H](CNC(=O)c2ccn(Cc3cc4c(nc3C)NCCC4)c2)C(=O)O)c(C)c1 [Example 122]	43 nM
CC(C)(C)COC(=O)N[C@@H](CNC(=O)c1cnn(CCc2ccc3c(n2)NCCC3)c1)C(=O)O [Example 137]	0.8 nM
COc1ccc([C@H](CC(=O)O)NC(=O)c2cn(CCc3ccc4c(n3)NCCC4)nc2C)cc1F [Example 54]	30 nM
COc1ccc([C@H](CC(=O)O)NC(=O)c2cnn(CCCNC3=NCCN3)c2)cn1 [Example 88]	378 nM
Cc1nc2c(cc1Cn1ncc(C(=O)N[C@@H](CC(=O)O)c3cc(Cl)cc(Cl)c3)n1)CCCN2 [Example 14, (S)-3-(3,5-Dichlorophenyl)-3-(2-((2-methyl-5,6,7,8-tetrahydro-1,8-naphthyridin-3-yl)methyl)-2H-1,2,3-triazole-4-carboxamido)propanoic acid]	2210 nM
O=C(NC[C@H](NS(=O)(=O)Cc1ccc(Cl)c(Cl)c1)C(=O)O)c1cnn(CCc2ccc3c(n2)NCCC3)c1 [Example 141]	3.6 nM
CN(C(=O)c1cnn(CCc2ccc3c(n2)NCCC3)c1)[C@H](CC(=O)O)c1cc(Cl)cc(Cl)c1 [Example 93]	446 nM
O=C(O)C[C@H](NC(=O)c1cnn(CCc2ccc3c(n2)NCCC3)c1CO)c1cc(Cl)cc(Cl)c1 [Example 29]	6.4 nM
CCOC(=O)C[C@H](NC(=O)c1cnn(CCc2ccc3c(n2)NCCC3)c1)c1cc(Br)cc(C(C)(C)C)c1 [Example 106]	4310 nM
Cc1nc2c(cc1Cn1cc(C(=O)NC(CC(=O)O)c3cc(Cl)cc(Cl)c3)c(CO)n1)CCCN2 (stereo not shown) [Example 105]	3930 nM
Cc1ccc(Oc2cccc(C(CC(=O)O)NC(=O)c3cnn(CCc4ccc5c(n4)NCCC5)c3COC(C)(C)C)c2)cc1 (stereo not shown) [Example 23]	2.3 nM
Cc1nn(CCc2ccc3c(n2)NCCC3)c(C)c1C(=O)NC(CC(=O)O)c1ccc(C(F)(F)F)cc1 (stereo not shown) [Example 77]	134 nM
